We go through two compounds from patent publication US8187278B2, “Photodynamic cellular and acellular organism eradication utilizing a photosensitive material and benzalkonium chloride” (Advanced Photodynamic Technologies, Inc., priority 1998, dated 2012).

For data set [1] the following is noted: cited from earlier work.
The test system of data set [2] is several species of bacteria. The data set can be described thus: photoeradication using methylene blue mediated PDT and the surfactant benzalkonium chloride (FIG. 2), qualitative colony count. Type of data set: cell-based. To be noted: diode laser about 664 nm, 100 mw/cm^2, 30 to 40 J/cm^2; methylene blue 0 to 100 μg/ml, benzalkonium chloride 0 to 0.01%; topically applied. The text has this:
One particular treatment protocol according to the present invention utilizes the photosensitive material methylene blue and surfactant benzalkonium chloride. Benzalkonium chloride concentrations from 0.001% to 0.5% have been identified as advantageous in the destruction of certain microorganisms, such as Candida albicans, Escherechia coli, Pseudomonas aeruginosa, Staphylococcus aureus, Klebsellia, Serratia,Haemophilus influenza, and Streptococcus pneumoniae. Reference may be made to FIG. 2, which illustrates a schedule of investigation results. […] The laser used for illumination was a diode laser. Methylene blue concentrations ranged from 0 to 100 μg/ml. Benzalkonium chloride concentrations ranged from 0 to 0.01%. The combined solution was topically applied at the cell site. A light dosage rate was 100 mw/cm^2. Light dosages ranged from 30 to 40 J/cm^2. A qualitative colony count relates particular colony counts to an associated score.

The conditions of data set [3]: cited from earlier work. This is another data set of the same source.

Read-outs that look alike come from different tables or passages of the source.

Take `CN(C)c1ccc2nc3ccc(=[N+](C)C)cc-3sc2c1` [methylene blue]: the “yield of the singlet oxygen generation” value in data set [1] (pH 5) is recorded as 0.2; in data set [1] (pH 9), 0.94. Moreover, the “sensitization of bacteria to killing by laser irradiation” value in data set [2] is on record as “alone neither the surfactant nor the photosensitizing agent sensitized the bacteria to killing by laser irradiation”. For the same compound, the “toxic effects on administration in high doses” value in data set [3] (humans, orally and intravenously, high doses) is given as “without any toxic effects”. Also, in data set [3] (in vivo), the tissue toxicity result is listed as “very low tissue toxicity”.
Take “alkyl dimethyl benzylammonium chloride [benzalkonium chloride]”: the “sensitization of bacteria to killing by laser irradiation” value in data set [2] is reported as “alone neither the surfactant nor the photosensitizing agent sensitized the bacteria to killing by laser irradiation”.
